Results taken from PMC7587356, “High-Throughput Screening for Inhibitors of the SARS-CoV-2 Protease Using a FRET-Biosensor” (Molecules, 2020).
Structures can show the parent of a compound that is named as a salt. Where two headings read alike, the source gives them in different places.

Target: SARS-CoV-2 3CLpro (Severe acute respiratory syndrome coronavirus 2, UniProt P0DTD1)
Experiment: biochemical
Assay type: biochemical
Parameters: Replicate_1 / Replicate_2 / mean / mean (LOPAC_screen_w_protease): unit not given here
Details: for inhibition at 5 µM: 4 h
[1] = LOPAC1280 primary screen with protease, 5 µM compound, mean of two replicates
[2] = LOPAC1280 primary screen with protease, 5 µM compound, replicate 1
[3] = LOPAC1280 primary screen with protease, 5 µM compound, replicate 2
[4] = sheet LOPAC_screen_w_protease, primary screen with protease, 5 µM, mean of two replicates
[5] = sheet LOPAC_screen_w_protease, primary screen with protease, 5 µM, replicate 1
[6] = sheet LOPAC_screen_w_protease, primary screen with protease, 5 µM, replicate 2
[7] = sheet LOPAC_screen_w_protease, primary screen with protease, 5 µM, mean of two replicates, read-out: mean
[8] = sheet LOPAC_screen_w_protease, primary screen with protease, 5 µM, replicate 1, read-out: Replicate_1
[9] = sheet LOPAC_screen_w_protease, primary screen with protease, 5 µM, replicate 2, read-out: Replicate_2
[10] = sheet LOPAC_screen_w_protease, LOPAC1280 primary screen at 5 µM, with protease, mean of two replicates
[11] = sheet LOPAC_screen_w_protease, LOPAC1280 primary screen at 5 µM, with protease, replicate 1
[12] = sheet LOPAC_screen_w_protease, LOPAC1280 primary screen at 5 µM, with protease, replicate 2
[13] = sheet LOPAC_screen_w_protease, LOPAC1280 primary screen at 5 µM, with protease, mean of the two replicates
[14] = sheet LOPAC_screen_w_protease, primary screen with protease, mean of two replicates
[15] = sheet LOPAC_screen_w_protease, primary screen with protease, replicate 1
[16] = sheet LOPAC_screen_w_protease, primary screen with protease, replicate 2
[17] = sheet LOPAC_screen_w_protease, LOPAC1280 at 5 µM, mean of two replicates
[18] = sheet LOPAC_screen_w_protease, LOPAC1280 at 5 µM, replicate 1
[19] = sheet LOPAC_screen_w_protease, LOPAC1280 at 5 µM, replicate 2
[20] = sheet LOPAC_screen_w_protease, LOPAC1280 at 5 µM, mean of two replicates, read-out: mean
[21] = sheet LOPAC_screen_w_protease, LOPAC1280 at 5 µM, replicate 1, read-out: Replicate_1
[22] = sheet LOPAC_screen_w_protease, LOPAC1280 at 5 µM, replicate 2, read-out: Replicate_2
[23] = sheet LOPAC_screen_w_protease, LOPAC1280 primary screen at 5 µM, with protease, mean of the two replicates, read-out: mean
[24] = sheet LOPAC_screen_w_protease, LOPAC1280 primary screen at 5 µM, with protease, replicate 1, read-out: Replicate_1
[25] = sheet LOPAC_screen_w_protease, LOPAC1280 primary screen at 5 µM, with protease, replicate 2, read-out: Replicate_2
[26] = LOPAC1280 primary screen with protease, 5 µM compound, replicate 1, read-out: Replicate_1 (LOPAC_screen_w_protease)
[27] = LOPAC1280 primary screen with protease, 5 µM compound, replicate 2, read-out: Replicate_2 (LOPAC_screen_w_protease)
[28] = LOPAC1280 primary screen with protease, 5 µM compound, mean of the two replicates

SMILES: CCCCC/C=C\C[C@@H](O)/C=C/c1cccc(C[C@@H](O)CCCCO)n1 [U-75302]
- mean (LOPAC_screen_w_protease) [1]: 1.3528
- Replicate_1 (LOPAC_screen_w_protease) [2]: 0.07831
- Replicate_2 (LOPAC_screen_w_protease) [3]: 2.627

SMILES: Cc1c(C)c2c(c(C)c1O)CCC(C)(CN1CCN(c3cc(N4CCCC4)nc(N4CCCC4)n3)CC1)O2.Cl.Cl (stereo not drawn) [U-83836 dihydrochloride]
- mean [4]: 0.07046
- Replicate_1 [5]: -0.1864
- Replicate_2 [6]: 0.3273

SMILES: CCCN(CCC)C1Cc2cc(OC)c(OC)cc2C1.O=C(O)/C=C\C(=O)O [U-99194A maleate]
- mean [4]: -0.07283
- Replicate_1 [5]: -1.037
- Replicate_2 [6]: 0.891

SMILES: CC(C)Oc1cccnc1N(C)C1CCN(Cc2ccccc2)CC1.O=C(O)/C=C\C(=O)O [U-101958 maleate]
- mean [4]: 0.02682
- Replicate_1 [5]: 1.919
- Replicate_2 [6]: -1.865

SMILES: Brc1c(NC2=NCCN2)ccc2nccnc12 [UK 14,304]
- Replicate_1 (LOPAC_screen_w_protease): 1.98
- Replicate_2 (LOPAC_screen_w_protease): 2.1604
- mean (LOPAC_screen_w_protease): 2.07

SMILES: COc1ccccc1N1CCN(CCCNc2cc(=O)n(C)c(=O)n2C)CC1 [Urapidil hydrochloride]
- inhibition at 5 µM [7]: -0.372%
- inhibition at 5 µM [8]: 0.127%
- inhibition at 5 µM [9]: -0.871%

SMILES: COc1ccccc1N1CCN(CCCNc2c(C)c(=O)n(C)c(=O)n2C)CC1 [Urapidil, 5-Methyl-]
- mean [10]: -1.384
- Replicate_1 [11]: -1.313
- Replicate_2 [12]: -1.455

SMILES: O=c1ccn([C@@H]2O[C@H](COP(=O)([O-])OP(=O)([O-])O)[C@@H](O)[C@H]2O)c(=O)[nH]1.[Na+].[Na+] [Uridine 5'-diphosphate sodium]
- mean [4]: -0.3913
- Replicate_1 [5]: -1.155
- Replicate_2 [6]: 0.3722

SMILES: C[C@H](N)CN1CCc2ccc(Br)cc21.C[C@H](N)CN1CCc2ccc(Br)cc21.O=C(O)/C=C/C(=O)O [VER-3323 hemifumarate salt]
- mean [13]: 0.8173
- Replicate_1 [11]: 0.78
- Replicate_2 [12]: 0.8545

SMILES: COc1ccccc1NC(=O)Nc1nc(-c2cccnc2)nc2ccccc12 [VUF 5574]
- mean [14]: 2.164
- Replicate_1 [15]: 1.496
- Replicate_2 [16]: 2.8319

SMILES: CCCC(CCC)C(=O)O [Valproic acid sodium]
- inhibition at 5 µM (sheet LOPAC_screen_w_protease, primary screen of LOPAC1280 at 5 µM with protease, mean of the two replicates, read-out: mean): 3.18%
- inhibition at 5 µM (sheet LOPAC_screen_w_protease, primary screen of LOPAC1280 at 5 µM with protease, replicate 1, read-out: Replicate_1): 2.68%
- inhibition at 5 µM (sheet LOPAC_screen_w_protease, primary screen of LOPAC1280 at 5 µM with protease, replicate 2, read-out: Replicate_2): 3.67%

SMILES: CCN(CC)C(=O)c1ccc(O)c(OC)c1 [Vanillic acid diethylamide]
- mean [17]: 0.9703
- Replicate_1 [18]: 1.198
- Replicate_2 [19]: 0.7424

SMILES: CC[C@]1(O)C[C@@H]2CN(CCc3c([nH]c4ccccc34)[C@@](C(=O)OC)(c3cc4c(cc3OC)N(C)[C@H]3[C@@](O)(C(=O)OC)[C@H](OC(C)=O)[C@]5(CC)C=CCN6CC[C@]43[C@@H]65)C2)C1.O=S(=O)(O)O [Vinblastine sulfate salt]
- mean [4]: 0.3705
- Replicate_1 [5]: 2.018
- Replicate_2 [6]: -1.277

SMILES: CCOC(=O)C1=C[C@]2(CC)CCCN3CCc4c(n1c1ccccc41)[C@@H]32 [Vinpocetine]
- inhibition at 5 µM [20]: 0.949%
- inhibition at 5 µM [21]: 0.618%
- inhibition at 5 µM [22]: 1.28%

SMILES: COc1ccccc1N1CCN(CCN(C(=O)C2CCCCC2)c2ccccn2)CC1.O=C(O)/C=C\C(=O)O [WAY-100635 maleate]
- mean [17]: 1.0596
- Replicate_1 [18]: 1.502
- Replicate_2 [19]: 0.6169

SMILES: C[N+](C)(CCCCCC[N+](C)(C)CCCN1C(=O)c2cccc3cccc(c23)C1=O)CCCN1C(=O)c2cccc3cccc(c23)C1=O.[Br-].[Br-] [WB 64]
- mean [13]: 0.6302
- Replicate_1 [11]: 0.2165
- Replicate_2 [12]: 1.044

SMILES: COc1cccc(OC)c1OCCNCC1COc2ccccc2O1.Cl (stereo not drawn) [WB-4101 hydrochloride]
- mean (LOPAC_screen_w_protease) [1]: 1.343
- Replicate_1 (LOPAC_screen_w_protease) [2]: 1.824
- Replicate_2 (LOPAC_screen_w_protease) [3]: 0.8625

SMILES: C#C[C@]1(O)CC[C@H]2[C@@H]3CCC4=Cc5nc6nc7ccccc7n6cc5C[C@]4(C)[C@H]3CC[C@@]21C [WIN 62,577]
- Replicate_1: -0.8505
- Replicate_2: 3.428
- mean: 1.289

SMILES: COC[C@H]1OC(=O)c2coc3c2[C@@]1(C)C1=C(C3=O)[C@@H]2CCC(=O)[C@@]2(C)C[C@H]1OC(C)=O [Wortmannin from Penicillium funiculosum]
- mean [14]: 2.471
- Replicate_1 [15]: 2.1754
- Replicate_2 [16]: 2.767

SMILES: CC(Oc1ccc(Oc2cnc3ccc(Cl)cc3n2)cc1)C(=O)O (stereo not drawn) [XK469]
- mean [17]: 1.32
- Replicate_1 [18]: 0.4248
- Replicate_2 [19]: 2.215

SMILES: O=C(NCCNCC(O)COc1ccc(O)cc1)N1CCOCC1 (stereo not drawn) [Xamoterol hemifumarate]
- inhibition at 5 µM [23]: 0.551%
- inhibition at 5 µM [24]: 1.09%
- inhibition at 5 µM [25]: 0.0143%

SMILES: CCCn1c(=O)c2[nH]c(-c3ccc(OCC(=O)NCCN)cc3)nc2n(CCC)c1=O [Xanthine amine congener]
- mean [10]: -1.654
- Replicate_1 [11]: -1.399
- Replicate_2 [12]: -1.91

SMILES: Cc1cccc(C)c1N=C1NCCCS1 [Xylazine hydrochloride]
- inhibition at 5 µM (read-out: Replicate_1): 0.366%
- inhibition at 5 µM (read-out: Replicate_2): 2.25%
- inhibition at 5 µM (read-out: mean): 1.31%

SMILES: Cc1cc(C(C)(C)C)cc(C)c1CC1=NCCN1 [Xylometazoline hydrochloride]
- inhibition at 5 µM [20]: 1.12%
- inhibition at 5 µM [21]: 0.813%
- inhibition at 5 µM [22]: 1.42%

SMILES: C[C@@H](N)[C@H]1CC[C@H](C(=O)Nc2ccncc2)CC1.Cl.Cl [Y-27632 dihydrochloride]
- mean (LOPAC_screen_w_protease) [1]: 1.325
- Replicate_1 (LOPAC_screen_w_protease) [2]: 2.12
- Replicate_2 (LOPAC_screen_w_protease) [3]: 0.5298

SMILES: OCc1ccc(-c2nn(Cc3ccccc3)c3ccccc23)o1 [YC-1]
- mean (LOPAC_screen_w_protease) [1]: 1.333
- Replicate_1 (LOPAC_screen_w_protease) [2]: 0.3284
- Replicate_2 (LOPAC_screen_w_protease) [3]: 2.338

SMILES: COc1ccc(CCN(C)CCc2ccc(OC)c(OC)c2)cc1OC.Cl [YS-035 hydrochloride]
- mean [13]: 0.8264
- Replicate_1 [11]: 0.7595
- Replicate_2 [12]: 0.8934

SMILES: COC(=O)[C@@H]1[C@H]2C[C@H]3c4[nH]c5ccccc5c4CCN3C[C@@H]2CC[C@@H]1O [Yohimbine hydrochloride]
- inhibition at 5 µM [7]: 0.269%
- inhibition at 5 µM [8]: -0.997%
- inhibition at 5 µM [9]: 1.53%

SMILES: O=C(N[C@@H](Cc1ccccc1)C(=O)CCl)OCc1ccccc1 [Z-L-Phe chloromethyl ketone]
- inhibition at 5 µM (sheet LOPAC_screen_w_protease, primary screen at 5 µM, mean of two replicates, read-out: mean (LOPAC screen with protease)): 100%
- inhibition at 5 µM (sheet LOPAC_screen_w_protease, primary screen at 5 µM, replicate 1, read-out: Replicate_1 (LOPAC screen with protease)): 100%
- inhibition at 5 µM (sheet LOPAC_screen_w_protease, primary screen at 5 µM, replicate 2, read-out: Replicate_2 (LOPAC screen with protease)): 100%

SMILES: CC(C)N(CCC(=O)c1ccc2ccccc2c1)Cc1ccccc1.Cl [ZM 39923 hydrochloride]
- mean (LOPAC screen with protease) (sheet LOPAC_screen_w_protease, primary screen at 5 µM, mean of two replicates): 93.4745
- Replicate_1 (LOPAC screen with protease) (sheet LOPAC_screen_w_protease, primary screen at 5 µM, replicate 1): 92.2854
- Replicate_2 (LOPAC screen with protease) (sheet LOPAC_screen_w_protease, primary screen at 5 µM, replicate 2): 94.6636

SMILES: CCCOc1ccccc1-c1nc2nn[nH]c2c(=O)[nH]1 [Zaprinast]
- inhibition at 5 µM [26]: 2.02%
- inhibition at 5 µM [27]: 1.12%
- mean (LOPAC_screen_w_protease) [1]: 1.567

SMILES: COc1cc(-c2ccc(=O)[nH]n2)ccc1OC(F)F [Zardaverine]
- inhibition at 5 µM [26]: 2.27%
- inhibition at 5 µM [27]: 1.55%
- mean (LOPAC_screen_w_protease) [28]: 1.91

SMILES: CN(C)C/C=C(/c1ccc(Br)cc1)c1cccnc1 [Zimelidine dihydrochloride]
- inhibition at 5 µM [20]: 0.989%
- inhibition at 5 µM [21]: 1.05%
- inhibition at 5 µM [22]: 0.928%

SMILES: NS(=O)(=O)Cc1noc2ccccc12 [Zonisamide sodium]
- inhibition at 5 µM [23]: 0.586%
- inhibition at 5 µM [24]: -0.00469%
- inhibition at 5 µM [25]: 1.18%

SMILES: N=C(N)NC(CCC(=O)O)C(=O)O (stereo not drawn) [alpha-Guanidinoglutaric acid]
- mean (LOPAC_screen_w_protease) [28]: 1.992
- Replicate_1 (LOPAC_screen_w_protease) [2]: 2.352
- Replicate_2 (LOPAC_screen_w_protease) [3]: 1.632

SMILES: CN1[C@@H](CC(=O)c2ccccc2)CCC[C@H]1C[C@H](O)c1ccccc1.Cl [alpha-Lobeline hydrochloride]
- mean [17]: 1.292
- Replicate_1 [18]: 1.696
- Replicate_2 [19]: 0.8887
